Data from the NIST ThermoML archive (doi:10.1016/j.tca.2017.12.013).
± gives the expanded uncertainty stated by the source.

Experiment: Molar enthalpy of transition or fusion
Settings: DSC

[Ag+].[Ag+].[S-2] [silver sulfide]
Molar enthalpy of transition or fusion (Crystal 2): 0.287 ± 0.143 kcal/mol
Molar enthalpy of transition or fusion (Crystal 3): 1 ± 0.191 kcal/mol
